Data: patent publication US20260193258A1, “AGENT FOR PROMOTING PHOSPHORYLATION OF eIF2a” (ER Stress Research Institute, Inc., priority 2019, published 2026)

Columns and labels:
human topoisomerase II = test: Human topoisomerase II DNA relaxation assay (ProFoldin kit); format: biochemical; conditions: 5 μL of evaluation sample solution (100 μM), fluorescence 485/535 nm, FIG. 4
Method: (§1) • Evaluation compound: Compound No. 1 of the present invention was used, and […] thereof was dissolved in 20 μL of DMSO to prepare a 20 mM solution. • Camptothecin: (FUJIFILM Wako Pure Chemical Corporation) 100 mg was dissolved in 57.4 mL of DMSO to prepare a 5 mM solution. • Etoposide: (FUJIFILM Wako Pure Chemical Corporation) 25 mg was dissolved in 424.8 μL of DMSO to prepare a 100 mM solution. • Human topoisomerase I/DNA relaxation assay kit […] (Manufactured by ProFoldin) • Human topoisomerase II/DNA relaxation assay kit HD[…] (Manufactured by ProFoldin) Measurement was performed in accordance with an instruction manual of ProFoldin. […] After the reaction, centrifugation was performed at 1,300 rpm for 30 seconds, and the reaction liquid was poured into a spin-column. The spin-column was rotated at 1,300 rpm for 2 minutes, and the liquid that had flowed out of the column was poured into a 96-well black plate. The liquid that had flowed out was subjected to a reaction by adding a fluorescent dye solution (up to 150 μL). The intensity of fluorescence excited with light at 485 nm was measured at 535 nm.

mouse naive CD4+ T cells = test: Th17 cell differentiation-suppressing activity (flow cytometry); format: cell-based; conditions: Compound No. 1 at 5 μM, halofuginone at 50 nM, 5 days of differentiation culture, FIG. 5
Method: Evaluation compound: Compound No. 1 of the present invention was used, and […] thereof was dissolved in 20 μL of DMSO to prepare a 20 mM solution. • Halofuginon: (Cayman Chemical Company)
5 mg was dissolved in 554.2 μL of DMSO to prepare a 20 mM solution. • Th17 cell inducer: A Th17 cell differentiation induction kit containing IL-6 and TGFβ1 as main components (CellXVivo Mouse Th17 Cell Differentiation Kit: R&D Systems) • Mouse helper T cell differentiation induction kit CDK017 (Techne Corporation)
Measurement was performed in accordance with an instruction manual of Techne Corporation. First, a cell culture plate was coated with an anti-hamster CD3 antibody. Mouse spleen cells were isolated into single cells, and mouse naive CD4^+ T cells were isolated using a mouse naive CD4^+ T cell isolation kit (MagCellect). The number of cells was counted. The isolated mouse naive CD4^+ T cells were dispersed in a mouse Th17 differentiation medium at 1×10^6 cells/mL. Compound No. 1 and halofuginone were added to the mouse Th17 differentiation medium at 5 μM and 50 nM, respectively. Next, the medium having the cells dispersed therein was added to the plate coated with the anti-hamster CD3 antibody, and humidified culture was continued for 3 days at 37° C. in the presence of 5% CO2. On the 3rd day, the medium was refreshed by adding an equal amount of the mouse Th17 differentiation medium without removing the original culture medium. Humidified culture was continued for 2 days at 37° C. in the presence of 5% CO2. After the 5 days of differentiation culture, the differentiated mouse Th17 cells were subjected to flow cytometry to analyze the expression of cytokines, and the number of cells differentiated into Th17 cells was determined.

eIF2α = eIF2α phosphorylation-promoting activity (western blotting of 293A cell lysates); format: cell-based; conditions: 293A cells, 16 hours at 37° C., Compound No. 1 at 5 μM, halofuginone at 50 nM, thapsigargin at 200 nM, FIG. 3
Method: • Host cells: 293A cells • Evaluation compound: Compound No. 1 of the present invention was used, and […] thereof was dissolved in 20 μL of DMSO to prepare a 20 mM solution. • Thapsigargin: (Cayman Chemical Company)
10 mg was dissolved in 76.8 mL of DMSO to prepare a 200 μM solution. • Halofuginon: (Cayman Chemical Company)
5 mg was dissolved in 554.2 μL of DMSO to prepare a 20 mM solution.
The above-mentioned 293A cells were seeded in a 96-well plate at 5×10^5 cells/well, and were cultured overnight in a DMEM solution of 10% fetal bovine serum (FBS). The next day, the medium was changed to a DMEM solution of 10% fetal bovine serum (FBS) containing Compound No. 1 at 5 μM, halofuginone at 50 nM, or thapsigargin at 200 nM, and the cells were cultured at 37° C. for 16 hours. After the cells had been washed with a PBS buffer, the cells were lysed with a RIPA buffer to extract proteins, and the proteins were separated according to size by an electrophoresis method of SDS-PAGE. The expression amount of an endoplasmic reticulum stress marker was measured by a western blotting method.

human topoisomerase I = biological target: T1, human topoisomerase I (Homo sapiens, UniProt P11387); test: Human topoisomerase I DNA relaxation assay (ProFoldin kit); format: biochemical; conditions: 5 μL of evaluation sample solution (100 μM), fluorescence 485/535 nm, FIG. 4
T1 construct: purchased ProFoldin HRA100KE
T1 sequence (P11387 1-765): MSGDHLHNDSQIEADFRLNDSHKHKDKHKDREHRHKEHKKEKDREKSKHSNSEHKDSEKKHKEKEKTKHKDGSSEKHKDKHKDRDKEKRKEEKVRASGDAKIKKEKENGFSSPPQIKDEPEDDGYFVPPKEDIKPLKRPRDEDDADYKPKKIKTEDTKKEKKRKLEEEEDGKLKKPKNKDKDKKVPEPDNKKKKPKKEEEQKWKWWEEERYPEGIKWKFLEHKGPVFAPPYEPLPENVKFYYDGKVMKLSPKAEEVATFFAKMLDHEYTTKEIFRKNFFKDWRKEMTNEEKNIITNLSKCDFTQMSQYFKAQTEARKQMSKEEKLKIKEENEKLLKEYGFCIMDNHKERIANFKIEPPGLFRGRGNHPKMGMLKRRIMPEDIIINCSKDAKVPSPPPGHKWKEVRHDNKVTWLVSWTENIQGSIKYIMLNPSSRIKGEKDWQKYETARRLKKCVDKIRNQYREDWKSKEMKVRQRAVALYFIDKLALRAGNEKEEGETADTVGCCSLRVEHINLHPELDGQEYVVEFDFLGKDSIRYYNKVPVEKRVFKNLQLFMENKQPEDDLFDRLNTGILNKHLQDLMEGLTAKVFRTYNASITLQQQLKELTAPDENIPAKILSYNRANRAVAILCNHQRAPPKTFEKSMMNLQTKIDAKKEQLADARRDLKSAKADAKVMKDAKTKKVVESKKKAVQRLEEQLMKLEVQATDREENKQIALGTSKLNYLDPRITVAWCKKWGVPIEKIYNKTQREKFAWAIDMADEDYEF
Method: as §1

Compound | topoisomerase-inhibiting activity, human topoisomerase II (human topoisomerase II) | suppression of differentiation from mouse naive CD4+ T cells into Th17 cells (mouse naive CD4+ T cells) | eIF2α phosphorylation-promoting effect (phosphorylated eIF2α expression amount) (eIF2α) | topoisomerase-inhibiting activity, human topoisomerase I (human topoisomerase I) | other results
1-(2-chloro-5-methylphenyl)-4-oxo-7-(4-pyridyl)-naphthyridine [Compound No. 1] | did not show topoisomerase-inhibiting activity | remarkably suppressed differentiation | had an eIF2α phosphorylation-promoting effect | did not show topoisomerase-inhibiting activity | topoisomerase-inhibiting activity, human topoisomerase II (human topoisomerase II; listed as No. 1): free of topoisomerase-inhibiting activity; suppression of differentiation from mouse naive CD4+ T cells into Th17 cells (mouse naive CD4+ T cells; listed as No. 1): has Th17 cell differentiation-suppressing activity; eIF2α phosphorylation-promoting effect (phosphorylated eIF2α expression amount) (eIF2α; listed as No. 1): eIF2α phosphorylation-promoting effect; topoisomerase-inhibiting activity, human topoisomerase I (human topoisomerase I; listed as No. 1): free of topoisomerase-inhibiting activity
CC[C@@]1(O)C(=O)OCc2c1cc1n(c2=O)Cc2cc3ccccc3nc2-1 [camptothecin, reference compound] |  |  |  | remarkably reduced topoisomerase I activity | 
COc1cc([C@@H]2c3cc4c(cc3[C@@H](O[C@@H]3O[C@@H]5CO[C@@H](C)O[C@H]5[C@H](O)[C@H]3O)[C@H]3COC(=O)[C@H]23)OCO4)cc(OC)c1O [etoposide, reference compound] | remarkably reduced topoisomerase II activity |  |  |  | 
O=C(CC1NCCCC1O)Cn1cnc2cc(Br)c(Cl)cc2c1=O (stereo not shown) [halofuginone, reference compound] |  | capable of inhibiting the induction of differentiation into Th17 cells | eIF2α phosphorylation-promoting effect |  | 
C/C=C(/C)C(=O)O[C@H]1C(C)=C2[C@H]([C@@H]1OC(=O)CCCCCCC)[C@@](C)(OC(C)=O)C[C@H](OC(=O)CCC)[C@@]1(O)[C@H]2OC(=O)[C@@]1(C)O [thapsigargin, reference compound] |  |  | eIF2α phosphorylation-promoting effect |  | 
